“Also recorded” adds a separate entry of the source.
Tests used:
[1] = 2AMD study: serum calcium analysis (atomic absorption); format: in vivo, mouse; settings: 200 pg and 300 pg 2AMD per day in diet; NOD mice; over 30 weeks (FIG. 2)
Excerpt: Diet. Breeding pairs were fed LabDiet™ Mouse Diet 5010 ad libitum (PMI Nutrition International, St. Louis, Mo.). Experimental mice were fed LabDiet™ Mouse Diet 5K52 meal form (PMI Nutrition International, St. Louis, Mo.). […] Serum Calcium Analysis. Blood was collected from maxillary cheek of each mouse weekly from 8 weeks to 200 days of age.

[2] = 2AMD study: body weight of NOD mice; format: in vivo, mouse; settings: 200 pg and 300 pg 2AMD per day in diet, over 200 days (FIG. 3)
Excerpt: Diet. Breeding pairs were fed LabDiet™ Mouse Diet 5010 ad libitum (PMI Nutrition International, St. Louis, Mo.). Experimental mice were fed LabDiet™ Mouse Diet 5K52 meal form (PMI Nutrition International, St. Louis, Mo.). […] Evaluation of Diabetic Status. […] Whole blood was centrifuged to obtain serum.

NOD mice [3] = test: 2AMD Type 1 Diabetes Prevention Study: diabetes incidence in NOD mice; format: in vivo, mouse; settings: female NOD mice
Protocol: Diet. Breeding pairs were fed LabDiet™ Mouse Diet 5010 ad libitum (PMI Nutrition International, St. Louis, Mo.). Experimental mice were fed LabDiet™ Mouse Diet 5K52 meal form (PMI Nutrition International, St. Louis, Mo.). […] At eight weeks of age, mice were placed on 1 of 4 experimental diets: 1) chow, 2) 5010+50 ng 1,25(OH)2D3, or 3) 5010+200 pg and 4) 5010+300 pg 2AMD. In diets/treatments containing 1,25(OH)2D3 or 2AMD, the hormone was added to 1% Wesson® oil and mixed into the diet.
(§1) Evaluation of Diabetic Status. […] Whole blood was centrifuged to obtain serum.

NOD mice [4] = test: 2MD Type 1 Diabetes Prevention Study: diabetes incidence in NOD mice; format: in vivo, mouse; settings: for Incidence of Type 1 Diabetes: female NOD mice
Excerpt: as §1

NOD mouse = settings: of 1,25-(OH)2D3, Zella et al., 2003; cited from earlier work
[5] = background, 19-nor-analogs; cited from earlier work
cellular differentiation = settings: background, 19-nor-analogs; cited from earlier work
[6] = 2MD study: serum calcium analysis (atomic absorption); settings: for serum calcium: NOD mice; for Serum Calcium Levels: mean, n = 12, in mg/dL (unit assumed)
Protocol: Diet. […] Female pups were weaned at three weeks and placed immediately on a purified diet (Suda et al., 1974, J. Nutr. 100: 1049-1052). At eight weeks of age, mice were then provided 1 of 4 experimental diets: diet 11 only or diet 11+50 ng 1,25(OH)2D3, diet 11 plus 400 ng 2 MP or diet 11+500 pg 2MD. All purified diets were supplemented with vegetable oil containing fat soluble vitamins A, E, D and K (Suda et al., 1970, J. Nutr. 100: 1049-1052 [diet 11]). In diets containing 1,25(OH)2D3, 2 MP or 2MD, the compounds were added to 1% Wesson® oil and mixed into the purified diet. Diets were fed in agar form (Hayes et al., 1987, J. Nutr. 117:857-865) at 3.5 g food/mouse/day and were replaced three times per week.
Serum Calcium Analysis. Blood was collected from maxillary cheek of each mouse at 6, 8, 9, 14.3, 15.3 and 28.6 weeks of age. Serum was separated by centrifugation and diluted 1:40 in a 0.1% LaCl2 solution. Calcium concentration was determined by atomic absorption spectrometry (Spectrometer 3110®, Perkin Elmer, Norwalk, Conn.).

[7] = 2MD study: body weight of NOD mice; settings: for Weights: mean, n = 12, in g (unit assumed)
Protocol: Diet. […] At eight weeks of age, mice were then provided 1 of 4 experimental diets: diet 11 only or diet 11+50 ng 1,25(OH)2D3, diet 11 plus 400 ng 2 MP or diet 11+500 pg 2MD. All purified diets were supplemented with vegetable oil containing fat soluble vitamins A, E, D and K (Suda et al., 1970, J. Nutr. 100: 1049-1052 [diet 11]). In diets containing 1,25(OH)2D3, 2 MP or 2MD, the compounds were added to 1% Wesson® oil and mixed into the purified diet. Diets were fed in agar form (Hayes et al., 1987, J. Nutr. 117:857-865) at 3.5 g food/mouse/day and were replaced three times per week.
Evaluation of Diabetic Status. All experimental mice were weighed weekly and urinalysis was performed weekly starting at 10 weeks of age—Diastix® (Bayer, Elkhart, Ind.) were used to determine glucose levels. If a Diastix® reading was above 1000 mg/dl, the mice were bled from maxillary cheek following a four-hour fast. Whole blood was centrifuged to obtain serum. Concentration of glucose in serum was measured using a enzymatic-colorimetric assay (Glucose Liquicolor®, Stanbio Laboratory, Boerne, Tex.) followed by spectrophotometric analysis. Animals that had two fasting glucose analysis above 300 mg/dl were diagnosed as diabetic and sacrificed via CO2 asphyxiation.

[8] = Group 8, 0.5 ng 2MD, age 6 weeks
[9] = Group 8, 0.5 ng 2MD, age 8 weeks
[10] = Group 8, 0.5 ng 2MD, age 9 weeks
[11] = Group 8, 0.5 ng 2MD, age 14.3 weeks
[12] = Group 8, 0.5 ng 2MD, age 15.3 weeks
[13] = Group 8, 0.5 ng 2MD, age 28.6 weeks
[14] = Group 10, 400 ng 2MP, age 6 weeks
[15] = Group 10, 400 ng 2MP, age 8 weeks
[16] = Group 10, 400 ng 2MP, age 9 weeks
[17] = Group 10, 400 ng 2MP, age 14.3 weeks
[18] = Group 10, 400 ng 2MP, age 15.3 weeks
[19] = Group 10, 400 ng 2MP, age 28.6 weeks

2α-methyl-19-nor-20(S)-1α,25-dihydroxyvitamin D3 [2AMD]
serum calcium / hypercalcemia [1]: no statistically significant increase in serum calcium; also recorded: without hypercalcemia | body weight [2]: no statistically significant change in body weight; also recorded: not altered | diabetes incidence at 200 days (FIG. 1) (NOD mice [3]; 200 pg and 300 pg 2AMD daily in diet, versus no treatment): statistically significant reduced incidence of diabetes | Type 1 diabetes disease incidence (NOD mice [3]; 200 pg and 300 pg 2AMD per day in 5010 diet, from 8 weeks to 200 days of age): 8%

C=C1/C(=C\C=C2/CCC[C@]3(C)[C@@H]([C@H](C)CCCC(C)(C)O)CC[C@@H]23)C[C@@H](O)C[C@@H]1O [1,25(OH)2D3, 1α,25-dihydroxy-vitamin D3]
Incidence of Type 1 Diabetes (NOD mice [4]; 50 ng per day in diet 11, 200 days, n = 24): 4.2% | prevention of diabetes (NOD mice [4]; 50 ng/day 1,25(OH)2D3 in diet 11, NOD mice): prevented diabetes | prevention of Type 1 diabetes (NOD mouse): completely prevent Type 1 diabetes | protection against T1DM (NOD mice [3]; 50 ng 1,25(OH)2D3 per day in 5010 diet): completely protected

C[C@H](CCCC(C)(C)O)[C@H]1CC[C@H]2/C(=C/C=C3C[C@@H](O)C[C@H](O)C3)CCC[C@]12C [1α,25-dihydroxy-19-nor-vitamin D3]
calcium mobilizing activity [5]: very low calcium mobilizing activity | potency for inducing cellular differentiation (cellular differentiation): high potency

C=C1[C@H](O)CC(=C/C=C2\CCC[C@@]3(C)C2CCC3[C@@H](C)CCCC(C)(C)O)C[C@H]1O (stereo partly drawn) [2MD, 2-methylene-19-nor-20(S)-1,25-dihydroxyvitamin D3]
Incidence of Type 1 Diabetes (NOD mice [4]; 0.5 ng per day in diet 11, 200 days, n = 12): 0.0% | prevention of diabetes / diabetes incidence (FIG. 4) (NOD mice [4]; 0.5 ng/day 2MD in diet 11, NOD mice, 200 days): statistically significant reduced incidence of diabetes; also recorded: prevented diabetes | serum calcium ([6]; 0.5 ng 2MD per day in diet 11, over 30 weeks (FIG. 6)): no statistically significant increase in serum calcium; also recorded: moderate elevation of calcium | Serum Calcium Levels [6, 8]: 11.42 | Serum Calcium Levels [6, 9]: 11.45 | Serum Calcium Levels [6, 10]: 11.55 | Serum Calcium Levels [6, 11]: 11.52 | Serum Calcium Levels [6, 12]: 11.33 | Serum Calcium Levels [6, 13]: 11.37 | body weight (FIG. 5) ([7]; 0.5 ng 2MD per day in diet 11, NOD mice, over 200 days): no statistically significant change in body weight | Weights ([7]; Group 8, 0.5 ng 2MD, age 3 weeks): 13.33 | Weights [7, 8]: 21.87 | Weights [7, 9]: 23.78 | Weights [7, 10]: 24.94 | Weights [7, 11]: 27.85 | Weights [7, 12]: 27.82 | Weights [7, 13]: 29.51

C=C1C(O)CC(=CC=C2CCCC3(C)C2CCC3C(C)C)CC1O (stereo not drawn) [2MP, 1α-hydroxy-2-methylene-19-nor-homopregnacalciferol, reference compound]
protection against diabetes (NOD mice [4]; 400 ng 2 MP per day in diet 11, NOD mice): no protection against diabetes | Incidence of Type 1 Diabetes (NOD mice [4]; 400 ng per day in diet 11, 200 days, n = 12): 33.0% | serum calcium ([6]; 400 ng 2 MP per day in diet 11): moderate elevation of calcium | Serum Calcium Levels [6, 14]: 11.57 | Serum Calcium Levels [6, 15]: 11.57 | Serum Calcium Levels [6, 16]: 11.55 | Serum Calcium Levels [6, 17]: 11.62 | Serum Calcium Levels [6, 18]: 11.77 | Serum Calcium Levels [6, 19]: 11.66 | Weights ([7]; Group 10, 400 ng 2MP, age 3 weeks): 13.60 | Weights [7, 14]: 22.03 | Weights [7, 15]: 23.74 | Weights [7, 16]: 24.63 | Weights [7, 17]: 26.30 | Weights [7, 18]: 26.81 | Weights [7, 19]: 27.64

— patent US20110124609A1, “Method of Preventing Type I Diabetes” (Wisconsin Alumni Research Foundation, priority 2009, published 2011)
